This is an account of results in patent publication US6451828B1, “Selective inhibition of glutaminase by bis-thiadiazoles” (priority 2000, dated 2002).

As usually defined, the inhibition is the relative decrease from the control value, in per cent. In general, IC50 refers to the concentration at which inhibition is half-maximal.

In test [1] the target is thrombin (Homo sapiens, UniProt P00734). The test is described as follows: Specificity: effect on mechanistically related enzyme. It counts as biochemical. Conditions: at 30 μM (data not shown). The method, then: (§1) Specificity for glutaminase was evaluated at two levels. Compounds were evaluated for specific interactions with several thiol hydrolases (cathepsin B, caspase-9, calpain-1, and […]). These are cysteine proteases which are believed to function by a mechanisms similar to that of glutaminase. Compounds were also evaluated for effects on intracellular amino acids and nucleotides in CACO2 (intestinal epithelial) cells (Example 5), and for effects on amino acids in primary cultures of cerebellar neurons (granule cells) and astrocytes (Examples 6-7). These measurements reflect interactions with other glutamine utilizing enzymes involved in amino acid and nucleic acid biosynthesis and homeostasis. For example, a decrease in cytidine triphosphate (CTP) and an increase in uridine triphosphate (UTP) on treatment with DON (6-diazo-5-oxo-L-norleucine), a known nonselective antiglutamine affinity label, is indicative of inhibition of the activity of CTP synthetase, for which UTP is the substrate and CTP the product.

In test [2] the target is T1, caspase 9 (Homo sapiens, UniProt P55211).
T1 sequence (P55211 1-416): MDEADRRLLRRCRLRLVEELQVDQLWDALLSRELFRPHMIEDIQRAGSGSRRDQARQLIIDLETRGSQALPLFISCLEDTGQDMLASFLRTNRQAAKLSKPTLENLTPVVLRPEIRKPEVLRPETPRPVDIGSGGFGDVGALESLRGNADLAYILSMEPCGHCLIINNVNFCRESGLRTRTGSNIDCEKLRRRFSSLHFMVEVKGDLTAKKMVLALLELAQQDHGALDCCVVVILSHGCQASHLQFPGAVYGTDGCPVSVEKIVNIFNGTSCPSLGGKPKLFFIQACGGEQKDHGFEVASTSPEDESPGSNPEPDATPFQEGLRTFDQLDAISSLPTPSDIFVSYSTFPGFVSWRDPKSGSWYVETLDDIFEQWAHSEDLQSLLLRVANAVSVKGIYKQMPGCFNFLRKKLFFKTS
The test is described as above. Type of test: biochemical. Conditions: at 30 μM (data not shown). Here is the method:
as §1

In test [3] the test system is microglia (BV-2) cells. The test is described as follows: Inhibition of microglial glutamate secretion. Type of test: cell-based. Conditions: Mus musculus. The method, then:
As described in Wood, glutamate efflux from microglia is dependent on the presence of added external glutamine. […] Therefore, the concentration of glutamate in the culture medium can be used directly as a measure of glutamate production by these cells.
In assaying the invention compounds, microglia (BV-2) cells were cultured using standard methods, as described in Example 4. On the day of the experiment, cells were incubated in glutamine free medium for 1 to 1.5 hours, then glutamine and test compounds, dissolved in glutamine free medium, were added. Aliquots were removed at 2 h and 4 h for glutamate analysis.
Inhibition of Microglial Glutamate Secretion
BV-2 cells were cultured in 24 well plates using Dulbeccos minimal essential medium containing 10% heat inactivated fetal bovine serum, and grown to 70-80% confluency before use. On the day of the experiment, cells were placed in glutamine free medium for 1 to 1.5 hours. […] This solution was used to replace one half of the 0.5 mL culture medium volume at the end of the glutamine free incubation. Aliquots of 10 μL medium were removed at 2 h and 4 h and placed in 96 well microtiter plates with 90 μL DMF/water (1:9) for glutamate analysis.

Test [4] has as its system intestinal epithelial (CACO2) cells. The test is described as follows: Intracellular amino acids in intestinal epithelial cells. Type of test: cell-based. Here is the method: When the cells reached about 80% confluency, fresh glutamine was added to 2 mM. […] After 6.5 h of incubation, cultures were washed twice with phosphate buffered saline and extracted with 100 μL 1M perchloric acid. Extracts were neutralized with 30 μL of 5M potassium carbonate, centrifuged, and analyzed by HPLC for nucleotides, as described in Di Pierro et al. 1995, and for amino acids, as described in Lo et al. 1998. Results are shown in FIG. 5A (amino acids) and FIG. 5B (nucleotides).

Test [5] deals with astrocytes. The test is described as follows: Intracellular amino acids in primary cultures of astrocytes. It counts as cell-based. The method, then: To produce dose response curves for lowering of intracellular Glu and Asp (FIG. 6A-B), the procedure was repeated with 4 days (for cerebellar granule cells) and 12 days of incubation (for astrocytes). […] Results are shown in FIGS. 6A-B. Data are expressed as the ratio of Glu, Asp, or GABA to Ala (neurons and astrocytes) or Ser (astrocytes).

Where [6] appears, read: CACO2, 10 nM to 10 μM, 6.5 h, FIG. 5A.

On to `O=C(Cc1ccccc1)Nc1nnc(CCSCCc2nnc(NC(=O)Cc3ccccc3)s2)s1` [SNX-1770, bis-2′-[5-(phenylacetamido)-1,3,4-thiadiazol-2-yl]ethyl sulfide], for which the Effect on thrombin entry in test [1] is recorded as “Nor did it have any effect”. Also, the “Effect on caspase 9” value in test [2] is on record as “Nor did it have any effect”. Also, in test [3] (BV-2, at 10 μM, read-out: Inhibition of glutamate efflux by microglia), the inhibition at 10 µM was approximately 85%. The IC50 in test [3] (BV-2 cells, glutamine added, FIG. 4, read-out: IC50, inhibition of glutamate efflux by microglia) was 80 to 120 nM; in test [5] (Astrocyte, primary cultures of astrocytes, read-out: IC50, lowering of cellular glutamate) it was 100 to 300 nM. Further, in test [4] (setting [6]), the “Effect on glutamate in cell extracts” value is on record as “dose dependent decrease”. The “Effect on glycine or taurine in cell extracts” value in test [4] (setting [6]) is listed as “no effect”. The “Lowering of cellular glutamate” value in test [4] (CACO2 cells, partial and specific) was approximately 30%; in test [5] (astrocytes, partial and specific), approximately 30%. The “Effect on intracellular (non-glutamate) amino acids, including serine, glycine, arginine, alanine, taurine” value is recorded as “no effect” in test [4] (at 10 μM, intestinal epithelial cells) and “no effect” in test [5] (at 10 μM, astrocytes).
